In article PMC3032881 (Molecular Immunology, 2011):
Peptide text beside a SMILES is read from it.

Key:
[1] = target: HLA A*0201 on TAP deficient T2 cells (Homo sapiens, UniProt P04439, D140Y/D185E/D98H/E176V/E277Q/G131W/G231S/I119V/I121R/I166T/I218V/L300P/L318F/N151K/N90K/P208A/P217A/Q86G/Q94H/R138H/R169H/T345S); test: T2-binding assay (cell surface pMHCI stabilization, FACS); assay type: cell-based
[2] = target: T1, HLA A*0201 (soluble recombinant pMHCI) (Homo sapiens, UniProt P04439, D140Y/D185E/D98H/E176V/E277Q/G131W/G231S/I119V/I121R/I166T/I218V/L300P/L318F/N151K/N90K/P208A/P217A/Q86G/Q94H/R138H/R169H/T345S); test: Real time SPR pMHC stability assay; assay type: binding; details: pMHCI half-life converted from Langmuir dissociation analysis; BIAcore 3000, CM5 chip, ∼500 RUs, 10 μl/min, 15,000 s
T1 construct: made in house

In the case of `CC[C@H](C)[C@H](NC(=O)[C@H](Cc1c[nH]c2ccccc12)NC(=O)[C@H](CCSC)NC(=O)[C@H](CC(C)C)NC(=O)[C@H](CC(C)C)NC(=O)[C@@H](N)CO)C(=O)N[C@H](C(=O)N[C@@H](CCC(N)=O)C(=O)N[C@@H](CC(C)C)C(=O)O)[C@@H](C)O`, the EC50 [1] is reported as 43.2 µM.

`CC(C)C[C@H](NC(=O)[C@@H](N)C(C)C)C(=O)N[C@@H](CO)C(=O)N[C@@H](CC(N)=O)C(=O)N[C@@H](CC(=O)O)C(=O)N[C@H](C(=O)N[C@@H](CS)C(=O)N[C@@H](C)C(=O)N[C@@H](CCC(N)=O)C(=O)N[C@H](C(=O)O)C(C)C)C(C)C` gave an EC50 [1] of 23.9 µM.

Work on `CC[C@H](C)[C@H](NC(=O)[C@@H](N)C(C)C)C(=O)N[C@@H](CO)C(=O)N[C@@H](CC(N)=O)C(=O)N[C@@H](CC(=O)O)C(=O)N[C@H](C(=O)N[C@@H](CS)C(=O)N[C@@H](C)C(=O)N[C@@H](CCC(N)=O)C(=O)N[C@H](C(=O)O)C(C)C)C(C)C` (H-VISNDVCAQV-OH) yielded an EC50 [1] of 50 µM.

In the case of `CC(C)C[C@H](NC(=O)[C@@H](N)Cc1ccc(O)cc1)C(=O)N[C@@H](CCC(=O)O)C(=O)N1CCC[C@H]1C(=O)NCC(=O)N1CCC[C@H]1C(=O)N[C@H](C(=O)N[C@@H](C)C(=O)O)C(C)C` (H-YLEPGPVA-OH; N-terminus and C-terminus assumed), the “Half-life” value [2] is reported as 5.8 h.
